Results as given in patent publication EP2623495B1, “Positively charged water-soluble prodrugs of n-arylanthranilic acids with very fast skin penetration rate” (Techfields Biochem Co. Ltd, priority 2006, dated 2008).
In brackets after ≈: the same amount, converted by molar mass. Read-outs that look alike come from different tables or passages of the source.

Experiments:
[1] = Gastroduodenal bleeding (fecal blood) after oral administration for 21 days; conditions: rats, orally 50 mg/kg per day for 21 days
[2] = In vitro penetration through human skin in modified Franz cells; assay type: in vitro ADME; conditions: for Apparent flux values: human skin 360-400 µm, donor 30% solution (prodrugs) or 30% suspension (parent drugs) in 2mL of pH 7.4 phosphate buffer (0.2M); for diffuses through human skin times faster than the parent drug: prodrug versus mefenamic acid, meclofenamic acid, flufenamic acid, niflumic acid, or flunixin
[3] = Acute toxicity, LD50 orally; conditions: mouse, in vivo, po; orally in mice; prodrugs
Text: The acute toxicity of the prodrugs was investigated.

[4] = In vivo penetration through the skin of intact hairless mice, plasma levels by HPLC; conditions: for peak plasma levels / time to peak levels after application of the donor systems: 20% solution in 1 mL of isopropanol on 10 cm^2 of the backs of hairless mice; for peak plasma levels: plasma levels of parent drug; for time to peak levels after application of the donor systems: transdermal; for difference in peak plasma levels, prodrugs versus parent drugs: topical application, hairless mice
Text: (§1) The in vivo rates of penetration of diethylaminoethyl 2-[(2,3-dimethylphenyl)amino]benzoate.AcOH, diethylaminoethyl 2-[(2,6-dichloro-3-methylphenyl)amino]benzoate.AcOH, diethylaminoethyl 2-[[(3-(trifluoromethyl)phenyl)amino]benzoate.AcOH, diethylaminoethyl 2-[[3-(trifluoromethyl)phenyl]amino]-3-pyridinecarboxylate.AcOH, and diethylaminoethyl 2-[[2-methyl-3-(trifluoromethyl)phenyl]amino]-3-pyridinecarboxylate.AcOH, mefenamic acid, meclofenamic acid, flufenamic acid, niflumic acid, and flunixin through the skin of intact hairless mice were compared. The donor consisted of a 20% solution of these compounds in 1 mL of isopropanol applied to a 10 cm^2 on the backs of the hairless mice. Plasma levels of mefenamic acid, meclofenamic acid, flufenamic acid, niflumic acid, and flunixin were determined by a specific high-performance liquid chromatography method.

Solubility in water = conditions: for solubility: solubility in water
[5] = Analgetic activity: prolongation time of the pain threshold of a mouse tail (D'Amour-Smith Method); assay type: in vivo, mice; conditions: 50mg/kg transdermally, mouse tails exposed to heat; Figure 3
Experimental: Analgetic activity: The prolongation time of the pain threshold of a mouse tail was determined in accordance with the D'Amour-Smith Method (J. Pharmacol. Exp. Ther., 72, 74(1941)). After 50mg/kg of these prodrugs were administered transdermally, the tails of mice were exposed to heat and the prolongation time of pain threshold was determined.
Group A is the control group. • Figure 4. The rate of swelling (%) after a carrageenin injection. […] Group A is the control group. • Figure 5.

[6] = Antipyretic activity after sterilized E. coli suspension as a pyrogen; assay type: in vivo; conditions: rats, 100 mg/kg transdermally 2 hours after E. coli pyrogen
Experimental: Antipyretic activity: Rats received a sterilized E. coli suspension as a pyrogen. […] The body temperature of rats was taken at 90 min. intervals before and after the administration of the test compounds. Table 2. Antipyretic Activity of prodrugs of arylanthranilic acids.

[7] = Analgetic activity: acetic acid writhing inhibition; assay type: in vivo; conditions: mice; for No. of Writhings: 100 mg/kg transdermally 60 minutes before acetic acid solution intraperitoneally, control group 35.0; for rate of writhings inhibition %: 100 mg/kg transdermally 60 minutes before acetic acid solution, based on the control group
Text: The group A is the control group. Table 1. The rate of writhings inhibition by prodrugs of arylanthranilic acids

[8] = rat, in vivo, po, 50 mg/kg/day, 21 days
[9] = cited from earlier work
[10] = hairless, mouse, in vivo
Text: as §1

physchem = conditions: water
[11] = taken orally; cited from earlier work
[12] = J. Pharm. Sci., 82, 227(1993); cited from earlier work
[13] = parent drugs, given for comparison

Compound | average fecal blood [1] | Apparent flux values [2] | diffuses through human skin times faster than the parent drug [2] | LD50 [3] | peak plasma levels [4] | time to peak levels after application of the donor systems [4] | difference in peak plasma levels, prodrugs versus parent drugs [4] | solubility (Solubility in water) | analgesic activity, prolongation time of pain threshold (in words) [5] | body temperature t=0 min. [6] | body temperature t=90 min. [6] | body temperature t=180 min. [6] | body temperature t=270 min. [6] | No. of Writhings [7] | rate of writhings inhibition % [7] | average fecal blood [8] | peak plasma levels [10] | solubility (physchem) | time to reach peak plasma level [11] | other results
CCN(CC)CCOC(=O)c1cccnc1Nc1cccc(C(F)(F)F)c1C [diethylaminoethyl 2-[[2-methyl-3-(trifluoromethyl)phenyl]amino]-3-pyridinecarboxylate.AcOH] | none | 1.7 mg/cm^2/h | ~200 times | 1100 mg/kg | ~2 mg/mL | ~50 min | approximately 200 times | > 450 mg/mL | shown analgesic activity nicely | 37.23±0.06 | 36.69±0.06 | 36.52±0.08 | 36.40±0.07 | 15.7 | 55% | – | – | – | – | solubility in water (Solubility in water): 400 mg/mL (≈ 1010 mM)
CC(=O)O.CCN(CC)CCNC(=O)c1ccccc1Nc1cccc(C)c1C [N-diethylaminoethyl 2-[(2,3-dimethylphenyl)amino] benzoamide.AcOH] | – | – | – | – | – | – | – | – | – | – | – | – | – | – | – | – | – | – | – | solubility in water (Solubility in water): 400 mg/mL
Cc1cccc(Nc2ccccc2C(=O)O)c1C [mefenamic acid, 2-[(2,3-Dimethylphenyl)amino]benzoic acid] | – | – | – | – | – | – | – | – | – | – | – | – | – | – | – | 2-4 mg of fecal blood per gram of feces | ~0.01 mg/mL | < 0.1 mg/mL | 2 to 4 h | LD50 ([9]; mouse, in vivo): 600 mg/kg
CCN(CC)CCOC(=O)c1ccccc1Nc1c(Cl)ccc(C)c1Cl [diethylaminoethyl 2-[(2,6-dichloro-3-methylphenyl)amino]benzoate.AcOH] | none | 2.0 mg/cm^2/h | ~200 times | 1000 mg/kg | ~2 mg/mL | ~50 min | approximately 200 times | > 400 mg/mL | shown analgesic activity nicely | 37.28±0.06 | 36.68±0.05 | 36.62±0.08 | 36.58±0.07 | 14.2 | 59% | – | – | – | – | –
O=C(O)c1cccnc1Nc1cccc(C(F)(F)F)c1 [niflumic acid, 2-[[3-(trifluoromethyl)phenyl]amino]-3-pyridinecarboxylic acid] | – | – | – | – | – | – | – | – | – | – | – | – | – | – | – | 2-4 mg of fecal blood per gram of feces | ~0.01 mg/mL | < 0.1 mg/mL | 2 to 4 h | LD50 [9, 13]: 650 mg/kg
CCN(CC)CCOC(=O)c1cccnc1Nc1cccc(C(F)(F)F)c1 [diethylaminoethyl 2-[[3-(trifluoromethyl)phenyl]amino]-3-pyridinecarboxylate.AcOH] | none | 1.8 mg/cm^2/h | ~200 times | 750 mg/kg | ~2 mg/mL | ~50 min | approximately 200 times | > 450 mg/mL | shown analgesic activity nicely | 37.25±0.07 | 36.82±0.06 | 36.70±0.05 | 36.50±0.08 | 15.2 | 57% | – | – | – | – | solubility in water (Solubility in water): 400 mg/mL (≈ 1050 mM)
O=C(O)c1ccccc1Nc1cccc(C(F)(F)F)c1 [flufenamic acid, 2-[[(3-trifluoromethyl)phenyl]amino]benzoic acid] | – | – | – | – | – | – | – | – | – | – | – | – | – | – | – | 2-4 mg of fecal blood per gram of feces | ~0.01 mg/mL | < 0.1 mg/mL | 2 to 4 h | LD50 [9, 13]: 715 mg/kg
Cc1ccc(Cl)c(Nc2ccccc2C(=O)O)c1Cl [meclofenamic acid, 2-[(2,6-dichloro-3-methylphenyl)amino]benzoic acid] | – | – | – | – | – | – | – | – | – | – | – | – | – | – | – | 2-4 mg of fecal blood per gram of feces | ~0.01 mg/mL | < 0.1 mg/mL | 2 to 4 h | –
CCN(CC)CCOC(=O)c1ccccc1Nc1cccc(C(F)(F)F)c1 [diethylaminoethyl 2-[[(3-(trifluoromethyl)phenyl)amino]benzoate.AcOH] | none | 2.2 mg/cm^2/h | ~200 times | 800 mg/kg | ~2 mg/mL | ~50 min | approximately 200 times | > 400 mg/mL | shown analgesic activity nicely | 37.27±0.06 | 36.76±0.05 | 36.65±0.08 | 36.49±0.07 | 16.1 | 54% | – | – | – | – | –
CN(C)CCCC(=O)O[C@H]1CC[C@H]2[C@@H]3CCC4=CC(=O)CC[C@]4(C)[C@H]3CC[C@]12C.Cl [TSBH, testosteronyl-4-dimethylaminobutyrate.HCl] | – | – | – | – | – | – | – | – | – | – | – | – | – | – | – | – | – | – | – | diffuses through human skin times faster than the drug (TS) itself [12]: ~60 times
Cc1c(Nc2ncccc2C(=O)O)cccc1C(F)(F)F [flunixin, 2-[[2-methyl-3-(trifluoromethyl)phenyl]amino]-3-pyridinecarboxylic acid] | – | – | – | – | – | – | – | – | – | – | – | – | – | – | – | 2-4 mg of fecal blood per gram of feces | ~0.01 mg/mL | < 0.1 mg/mL | 2 to 4 h | –
CCN(CC)CCOC(=O)c1ccccc1Nc1cccc(C)c1C [diethylaminoethyl 2-[(2,3-dimethylphenyl)amino]benzoate.AcOH] | none | 2.1 mg/cm^2/h | ~200 times | 900 mg/kg | ~2 mg/mL | ~50 min | approximately 200 times | > 400 mg/mL | shown analgesic activity nicely | 37.35±0.06 | 36.71±0.05 | 36.60±0.08 | 36.59±0.07 | 15.6 | 55% | – | – | – | – | –
CCN(CC)CCNC(=O)c1ccccc1Nc1c(Cl)ccc(C)c1Cl [N-diethylaminoethyl 2-[(2,6-dichloro-3-methylphenyl)amino] benzoamide.AcOH] | – | – | – | – | – | – | – | 400 mg/mL (≈ 1010 mM) | – | – | – | – | – | – | – | – | – | – | – | –
